Test results taken from patent US5705687A, “Neurotropic drug and method for preparation of same” (priority 1993, dated 1998).
Structures can show the parent of a compound that is named as a salt.

Tested on: mice
Experiment: Hemic hypoxia (sodium nitrite), lifespan
Assay type: in vivo
Conditions: for Lifespan, % effect: Na-nitrite alone = 100
Procedure: The antihypoxic properties of the new compounds were tested in the models of hypoxic normobaric, hemic and histotoxic hypoxia. The hypoxic (hypercapnic) normobaric hypoxia was induced by placing the mice in hermetically sealed transparent boxes, subdivided into compartments, 80 cm^3 each. The animals were observed until all respiratory movements ceased. The hemic hypoxia was induced by the intraperitoneal administration of sodium nitrite in a dose of 400 mg/kg. The hystotoxic hypoxia was induced by the intraperitoneal administration of sodium nitroprussiate, in a dose of a 20 mg/kg dosage.

## CC(C)(CO)C(=O)C(=O)NCCCC(=O)O [KPA-Ca, calcium salt of ketopantoyl aminobutyrate]
10 mg/kg + Na-nitrite 400 mg/kg
  Average lifespan: 777 ± 30.1 s
10 mg/kg
  Lifespan, % effect: 98.3%
25 mg/kg + Na-nitrite 400 mg/kg
  Average lifespan: 780 ± 30.3 s
25 mg/kg
  Lifespan, % effect: 98.7%
50 mg/kg + Na-nitrite 400 mg/kg
  Average lifespan: 819 ± 41 s
50 mg/kg
  Lifespan, % effect: 103.6%
100 mg/kg
  increase in effect (lifespan): 19.9%
  Lifespan, % effect: 119.9%
100 mg/kg + Na-nitrite 400 mg/kg, P < 0.01
  Average lifespan: 948 ± 40.3 s
10 to 100 mg/kg
  activity in hemic hypoxia (in words): little activity
